In PubChem BioAssay (NCI):
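48-hour exposure; five concentrations; linearly interpolated endpoints. Here, GI50 denotes the concentration required for 50% inhibition of growth. At the TGI there is no net growth.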

Experiments:
Test in all cases: NCI-60 cell line screen, 48 h
SK-MEL-2 melanoma = tested on: SK-MEL-2 melanoma
MDA-MB-231 breast = tested on: MDA-MB-231 breast
M14 melanoma = tested on: M14 melanoma
KM12 colon = tested on: KM12 colon
HCT-116 colon = tested on: HCT-116 colon
786-0 renal = tested on: 786-0 renal
COLO 205 colon = tested on: COLO 205 colon
ACHN renal = tested on: ACHN renal
MCF7 breast = tested on: MCF7 breast
SF-295 CNS = tested on: SF-295 CNS
IGROV1 ovarian = tested on: IGROV1 ovarian
HT29 colon = tested on: HT29 colon
HCC-2998 colon = tested on: HCC-2998 colon
SF-268 CNS = tested on: SF-268 CNS
PC-3 prostate = tested on: PC-3 prostate
LOX IMVI melanoma = tested on: LOX IMVI melanoma
K-562 leukemia = tested on: K-562 leukemia
NCI-H460 lung = tested on: NCI-H460 lung
SK-OV-3 ovarian = tested on: SK-OV-3 ovarian
NCI-H226 lung = tested on: NCI-H226 lung
UACC-257 melanoma = tested on: UACC-257 melanoma
OVCAR-5 ovarian = tested on: OVCAR-5 ovarian
OVCAR-3 ovarian = tested on: OVCAR-3 ovarian
HOP-92 NSCLC = tested on: HOP-92 NSCLC
SF-539 CNS = tested on: SF-539 CNS
RXF 393 renal = tested on: RXF 393 renal
RPMI-8226 leukemia = tested on: RPMI-8226 leukemia
HOP-62 NSCLC = tested on: HOP-62 NSCLC
HS 578T breast = tested on: HS 578T breast
SK-MEL-28 melanoma = tested on: SK-MEL-28 melanoma
NCI-H522 lung = tested on: NCI-H522 lung
OVCAR-4 ovarian = tested on: OVCAR-4 ovarian
OVCAR-8 ovarian = tested on: OVCAR-8 ovarian
U251 CNS = tested on: U251 CNS
HCT-15 colon = tested on: HCT-15 colon
A549 NSCLC = tested on: A549 NSCLC
SN12C renal = tested on: SN12C renal
UO-31 renal = tested on: UO-31 renal
HL-60(TB) leukemia = tested on: HL-60(TB) leukemia
MALME-3M melanoma = tested on: MALME-3M melanoma
CCRF-CEM leukemia = tested on: CCRF-CEM leukemia
TK-10 renal = tested on: TK-10 renal
NCI-H23 lung = tested on: NCI-H23 lung
SW-620 colon = tested on: SW-620 colon
BT-549 breast = tested on: BT-549 breast
CAKI-1 renal = tested on: CAKI-1 renal
MDA-MB-435 = tested on: MDA-MB-435
NCI/ADR-RES ovarian = tested on: NCI/ADR-RES ovarian
SNB-19 CNS = tested on: SNB-19 CNS
EKVX NSCLC = tested on: EKVX NSCLC
MOLT-4 leukemia = tested on: MOLT-4 leukemia
DU-145 prostate = tested on: DU-145 prostate
UACC-62 melanoma = tested on: UACC-62 melanoma
SK-MEL-5 melanoma = tested on: SK-MEL-5 melanoma
T-47D breast = tested on: T-47D breast
SNB-75 CNS = tested on: SNB-75 CNS
A498 renal = tested on: A498 renal

## COc1ccc2[nH]c(-c3ccccc3)cc2c1
SK-MEL-2 melanoma
  GI50: > 100 µM
  TGI: > 100 µM
MDA-MB-231 breast
  GI50: 61.8 µM
  TGI: > 100 µM
M14 melanoma
  GI50: > 100 µM
  TGI: > 100 µM
KM12 colon
  GI50: 73.8 µM
  TGI: > 100 µM
HCT-116 colon
  GI50: > 100 µM
  TGI: > 100 µM
786-0 renal
  GI50: > 100 µM
  TGI: > 100 µM
COLO 205 colon
  GI50: > 100 µM
  TGI: > 100 µM
ACHN renal
  GI50: > 100 µM
  TGI: > 100 µM
MCF7 breast
  GI50: 86.6 µM
  TGI: > 100 µM
SF-295 CNS
  GI50: 84.7 µM
  TGI: > 100 µM
IGROV1 ovarian
  GI50: > 100 µM
  TGI: > 100 µM
HT29 colon
  GI50: > 100 µM
  TGI: > 100 µM
HCC-2998 colon
  GI50: > 100 µM
  TGI: > 100 µM
SF-268 CNS
  GI50: > 100 µM
  TGI: > 100 µM
PC-3 prostate
  GI50: > 100 µM
  TGI: > 100 µM
LOX IMVI melanoma
  GI50: > 100 µM
  TGI: > 100 µM
K-562 leukemia
  GI50: 86.8 µM
  TGI: > 100 µM
NCI-H460 lung
  GI50: > 100 µM
  TGI: > 100 µM
SK-OV-3 ovarian
  GI50: > 100 µM
  TGI: > 100 µM
NCI-H226 lung
  GI50: > 100 µM
  TGI: > 100 µM
UACC-257 melanoma
  GI50: > 100 µM
  TGI: > 100 µM
OVCAR-5 ovarian
  GI50: > 100 µM
  TGI: > 100 µM
OVCAR-3 ovarian
  GI50: > 100 µM
  TGI: > 100 µM
HOP-92 NSCLC
  GI50: 70 µM
  TGI: > 100 µM
SF-539 CNS
  GI50: > 100 µM
  TGI: > 100 µM
RXF 393 renal
  GI50: > 100 µM
  TGI: > 100 µM
RPMI-8226 leukemia
  GI50: 43.2 µM
  TGI: > 100 µM
HOP-62 NSCLC
  GI50: > 100 µM
  TGI: > 100 µM
HS 578T breast
  GI50: > 100 µM
  TGI: > 100 µM
SK-MEL-28 melanoma
  GI50: > 100 µM
  TGI: > 100 µM
NCI-H522 lung
  GI50: 73.9 µM
  TGI: > 100 µM
OVCAR-4 ovarian
  GI50: 92.3 µM
  TGI: > 100 µM
OVCAR-8 ovarian
  GI50: > 100 µM
  TGI: > 100 µM
U251 CNS
  GI50: > 100 µM
  TGI: > 100 µM
HCT-15 colon
  GI50: > 100 µM
  TGI: > 100 µM
A549 NSCLC
  GI50: > 100 µM
  TGI: > 100 µM
SN12C renal
  GI50: > 100 µM
  TGI: > 100 µM
UO-31 renal
  GI50: > 100 µM
  TGI: > 100 µM
HL-60(TB) leukemia
  GI50: > 100 µM
  TGI: > 100 µM
MALME-3M melanoma
  GI50: > 100 µM
  TGI: > 100 µM
CCRF-CEM leukemia
  GI50: 68.5 µM
  TGI: > 100 µM
TK-10 renal
  GI50: > 100 µM
  TGI: > 100 µM
NCI-H23 lung
  GI50: 97.9 µM
  TGI: > 100 µM
SW-620 colon
  GI50: > 100 µM
  TGI: > 100 µM
BT-549 breast
  GI50: > 100 µM
  TGI: > 100 µM
CAKI-1 renal
  GI50: > 100 µM
  TGI: > 100 µM
MDA-MB-435
  GI50: > 100 µM
  TGI: > 100 µM
NCI/ADR-RES ovarian
  GI50: > 100 µM
  TGI: > 100 µM
SNB-19 CNS
  GI50: > 100 µM
  TGI: > 100 µM
EKVX NSCLC
  GI50: 59 µM
  TGI: > 100 µM
MOLT-4 leukemia
  GI50: > 100 µM
  TGI: > 100 µM
DU-145 prostate
  GI50: > 100 µM
  TGI: > 100 µM
UACC-62 melanoma
  GI50: 92.5 µM
  TGI: > 100 µM
SK-MEL-5 melanoma
  GI50: 86.6 µM
  TGI: > 100 µM
T-47D breast
  GI50: 19.3 µM
  TGI: > 100 µM
SNB-75 CNS
  GI50: > 100 µM
  TGI: > 100 µM
A498 renal
  GI50: 20.8 µM
  TGI: > 100 µM
